According to ChEMBL document CHEMBL1201862, “PubChem BioAssay data set” (2004):
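How tested: cells in 96-well plates exposed to compound for 48 hours at five concentrations. Abbreviation: GI50, concentration required for 50% inhibition of growth.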 Active and inactive are the calls of the source. Rule as the data show it: active = GI50 up to about 1.1 µM and inactive = higher. Where a SMILES comes first, the peptide text is derived from it. [ ]: non-standard residue; d: D form. The star is where a group is joined. ξ: configuration not given here. ξD = NC(CC(=O)O)C(=O)O; Boc = CC(C)(C)OC(=O)*; Aib = CC(C)(N)C(=O)O; OtBu = CC(C)(C)O*

Key:
Experiment in all cases: DTP human tumour cell line panel, 48 h
786-0 = test system: 786-0
A498 = test system: A498
A549 = test system: A549
ACHN = test system: ACHN
BT-549 = test system: BT-549
CAKI-1 = test system: CAKI-1
CCRF-CEM = test system: CCRF-CEM
COLO 205 = test system: COLO 205
DU-145 = test system: DU-145
EKVX = test system: EKVX
HCT-116 = test system: HCT-116
HCT-15 = test system: HCT-15
HOP-62 = test system: HOP-62
HOP-92 = test system: HOP-92
HT-29 = test system: HT-29
Hs-578T = test system: Hs-578T
IGROV-1 = test system: IGROV-1
K562 = test system: K562
KM12 = test system: KM12
LOX IMVI = test system: LOX IMVI
M14 = test system: M14
MCF7 = test system: MCF7
MDA-MB-231 = test system: MDA-MB-231
MDA-MB-435 = test system: MDA-MB-435
MDA-N = test system: MDA-N
MOLT-4 = test system: MOLT-4
Malme-3M = test system: Malme-3M
NCI-H226 = test system: NCI-H226
NCI-H23 = test system: NCI-H23
NCI-H460 = test system: NCI-H460
NCI-H522 = test system: NCI-H522
NCI/ADR-RES = test system: NCI/ADR-RES
OVCAR-3 = test system: OVCAR-3
OVCAR-4 = test system: OVCAR-4
OVCAR-5 = test system: OVCAR-5
OVCAR-8 = test system: OVCAR-8
PC-3 = test system: PC-3
RPMI-8226 = test system: RPMI-8226
RXF 393 = test system: RXF 393
SF-268 = test system: SF-268
SF-295 = test system: SF-295
SF-539 = test system: SF-539
SK-MEL-28 = test system: SK-MEL-28
SK-MEL-2 = test system: SK-MEL-2
SK-MEL-5 = test system: SK-MEL-5
SK-OV-3 = test system: SK-OV-3
SNB-19 = test system: SNB-19
SNB-75 = test system: SNB-75
SW-620 = test system: SW-620
T47D = test system: T47D
TK-10 = test system: TK-10
U-251 = test system: U-251
UACC-257 = test system: UACC-257
UACC-62 = test system: UACC-62
UO-31 = test system: UO-31

COC(=O)C(C)(C)NC(=O)C(C)(C)NC(=O)C(CC(=O)OC(C)(C)C)NC(=O)OC(C)(C)C (stereo not given) (Boc-[ξD](OtBu)-[Aib]-[Aib]-OMe)
GI50 (786-0): > 100 µM (inactive) | GI50 (A498): > 100 µM (inactive) | GI50 (A549): > 100 µM (inactive) | GI50 (ACHN): > 100 µM (inactive) | GI50 (BT-549): > 100 µM (inactive) | GI50 (CAKI-1): > 100 µM (inactive) | GI50 (CCRF-CEM): > 100 µM (inactive) | GI50 (COLO 205): > 100 µM (inactive) | GI50 (DU-145): > 100 µM (inactive) | GI50 (EKVX): > 100 µM (inactive) | GI50 (HCT-116): > 100 µM (inactive) | GI50 (HCT-15): > 100 µM | GI50 (HOP-62): > 100 µM (inactive) | GI50 (HOP-92): > 100 µM (inactive) | GI50 (HT-29): > 100 µM (inactive) | GI50 (Hs-578T): > 100 µM (inactive) | GI50 (IGROV-1): > 100 µM (inactive) | GI50 (K562): > 100 µM (inactive) | GI50 (KM12): > 100 µM (inactive) | GI50 (LOX IMVI): > 100 µM (inactive) | GI50 (M14): > 100 µM (inactive) | GI50 (MCF7): > 100 µM (inactive) | GI50 (MDA-MB-231): > 100 µM (inactive) | GI50 (MDA-MB-435): > 100 µM (inactive) | GI50 (MDA-N): > 10 µM (inactive) | GI50 (MOLT-4): > 100 µM (inactive) | GI50 (Malme-3M): > 100 µM (inactive) | GI50 (NCI-H226): > 100 µM (inactive) | GI50 (NCI-H23): > 100 µM (inactive) | GI50 (NCI-H460): > 100 µM (inactive) | GI50 (NCI-H522): > 100 µM (inactive) | GI50 (NCI/ADR-RES): > 100 µM (inactive) | GI50 (OVCAR-3): > 100 µM (inactive) | GI50 (OVCAR-4): > 100 µM (inactive) | GI50 (OVCAR-5): > 100 µM (inactive) | GI50 (OVCAR-8): > 100 µM (inactive) | GI50 (PC-3): > 100 µM (inactive) | GI50 (RPMI-8226): > 100 µM (inactive) | GI50 (RXF 393): > 100 µM (inactive) | GI50 (SF-268): 3.71 µM (inactive) | GI50 (SF-295): > 100 µM (inactive) | GI50 (SF-539): > 100 µM (inactive) | GI50 (SK-MEL-28): > 100 µM (inactive) | GI50 (SK-MEL-2): > 100 µM (inactive) | GI50 (SK-MEL-5): > 100 µM (inactive) | GI50 (SK-OV-3): > 100 µM (inactive) | GI50 (SNB-19): > 100 µM (inactive) | GI50 (SNB-75): > 100 µM (inactive) | GI50 (SW-620): > 100 µM (inactive) | GI50 (T47D): > 100 µM (inactive) | GI50 (TK-10): > 100 µM (inactive) | GI50 (U-251): > 100 µM (inactive) | GI50 (UACC-257): > 100 µM (inactive) | GI50 (UACC-62): > 100 µM (inactive) | GI50 (UO-31): > 100 µM (inactive)
